One assay concerns the target Bcl-2 protein (histag-Bcl-2, UniProtKB P10415) (Homo sapiens (Human), UniProt P10415). Nature of the assay: Inhibition of Bcl-2 by the fluorescence polarisation technique. The format is binding. The note with it: fluorescence polarisation test; incubation for 2 hours; read-out: IC50 (nM) Bcl-2 FP. From the text: For partial inhibitors, the percentage fluorescence polarisation inhibition for a given concentration of the test compound is indicated.

Assay [1] relates to RS4; 11 leukaemia cell line. Nature of the assay: In vitro cytotoxicity, Microculture Tetrazolium Assay (MTT). The format is cell-based. Particulars: Homo sapiens, 11 cells exposed for 48 hours. The method, then: The cytotoxicity studies were carried out on the RS4; 11 leukaemia cell line and on H146 small Cell Lung Carcinoma cell line. The cells are distributed onto microplates and exposed to the test compounds for 48 hours. The cell viability is then quantified by a colorimetric assay, the Microculture Tetrazolium Assay (Cancer Res., 1987, 47, 939-942).

The structures appear in SMILES notation. Structures can show the parent of a compound that is named as a salt.

As a reminder, the IC50 is the point on the concentration scale where inhibition reaches its midpoint.

Sequence of Bcl-2 protein (P10415 whole entry): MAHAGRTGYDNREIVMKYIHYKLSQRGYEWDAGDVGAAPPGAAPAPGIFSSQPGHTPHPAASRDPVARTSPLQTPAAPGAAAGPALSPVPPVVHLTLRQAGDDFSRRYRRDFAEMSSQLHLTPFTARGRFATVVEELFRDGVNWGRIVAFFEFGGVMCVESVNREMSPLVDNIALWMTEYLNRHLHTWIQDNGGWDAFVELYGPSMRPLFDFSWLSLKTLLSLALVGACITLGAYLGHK

In the case of `Cc1ccc(OC(=O)N2Cc3cc(C(=O)N4Cc5ccccc5C[C@H]4C)c(-c4cc(C(=O)N(C)c5ccc(O)cc5)c5n4CCCC5)cc3C2)cc1` [Example 168, 4-Methylphenyl 5-{1-[(4-hydroxyphenyl)(methyl)carbamoyl]-5,6,7,8-tetrahydroindolizin-3-yl}-6-[(3R)-3-methyl-1,2,3,4-tetrahydroisoquinoline-2-carbonyl]-2,3-dihydro-1H-isoindole-2-carboxylate], the IC50 was determined as 5.7 nM at Bcl-2 protein and 6.6 nM in assay [1].

With `C[C@@H]1Cc2ccccc2CN1C(=O)c1cc2c(cc1-c1cc(C(=O)N(C)c3ccc(O)cc3)c3n1CCCC3)CN(C(=O)N(C)c1ccccc1)C2` [Example 82, 5-{1-[(4-Hydroxyphenyl)(methyl)carbamoyl]-5,6,7,8-tetrahydroindolizin-3-yl}-N-methyl-6-[(3R)-3-methyl-1,2,3,4-tetrahydroisoquinoline-2-carbonyl]-N-phenyl-2,3-dihydro-1H-isoindole-2-carboxamide], the values for the IC50 (on Bcl-2 protein; in assay [1]) were 17 nM and > 150 nM, respectively.

Turning to `CN(C(=O)c1cc(-c2cc3c(cc2C(=O)N2Cc4ccccc4C[C@H]2CN2CCOCC2)CN(C(=O)OC(C)(C)C)CC3)n2c1CCCC2)c1ccc(O)cc1` [Example 1, tert-Butyl 6-{1-[(4-hydroxyphenyl)(methyl)carbamoyl]-5,6,7,8-tetrahydroindolizin-3-yl}-7-[(3S)-3-(morpholin-4-ylmethyl)-1,2,3,4-tetrahydroisoquinoline-2-carbonyl]-1,2,3,4-tetrahydroisoquinoline-2-carboxylate], the IC50 on Bcl-2 protein was determined as 13 nM; in assay [1] it was 140 nM.

On to `Cc1c(C(=O)N(C)c2ccc(O)cc2)cc(-c2cc3c(cc2C(=O)N2Cc4ccccc4C[C@H]2C)CN(C(=O)[C@H](N)c2ccccc2)C3)n1C` [Example 174, 5-(2-[(2R)-2-Amino-2-phenylacetyl]-6-{[(3R)-3-methyl-3,4-dihydroisoquinolin-2(1H)-yl]carbonyl}-2,3-dihydro-1H-isoindol-5-yl)-N-(4-hydroxyphenyl)-N,1,2-trimethyl-1H-pyrrole-3-carboxamide], for which the results for the IC50 (at Bcl-2 protein; in assay [1]) were 5.9 nM and 407 nM, respectively.

For the compound `C[C@@H]1Cc2ccccc2CN1C(=O)c1cc2c(cc1-c1cc(C(=O)N(C)c3ccc(O)cc3)c3n1CCCC3)CN(C(=O)Cc1ccc(OC(F)(F)F)cc1)C2` [Example 26, N-(4-Hydroxyphenyl)-N-methyl-3-{6-[(3R)-3-methyl-1,2,3,4-tetrahydroisoquinoline-2-carbonyl]-2-{2-[4-(trifluoromethoxy)phenyl]acetyl}-2,3-dihydro-1H-isoindol-5-yl}-5,6,7,8-tetrahydroindolizine-1-carboxamide], the IC50 was 30 nM on Bcl-2 protein and 86 nM in assay [1].

As to `Cc1c(C(=O)N(C)c2ccc(O)cc2)cc(-c2cc3c(cc2C(=O)N2Cc4ccccc4C[C@H]2CN2CCOCC2)CN(C(=O)Nc2ccccc2)CC3)n1C` [Example 245, 6-{4-[(4-Hydroxyphenyl)(methyl)carbamoyl]-1,5-dimethyl-1H-pyrrol-2-yl}-7-[(3S)-3-(morpholin-4-ylmethyl)-1,2,3,4-tetrahydroisoquinoline-2-carbonyl]-N-phenyl-1,2,3,4-tetrahydroisoquinoline-2-carboxamide], the IC50 at Bcl-2 protein came out at 4.2 nM; in assay [1] it was 92 nM.

In the case of `C[C@@H]1Cc2ccccc2CN1C(=O)c1cc2c(cc1-c1cc(C(=O)N(C)c3ccc(O)cc3)c3n1CCCC3)CN(C(=O)CNc1ccccc1)C2` [Example 87, N-(4-Hydroxyphenyl)-N-methyl-3-{6-[(3R)-3-methyl-1,2,3,4-tetrahydroisoquinoline-2-carbonyl]-2-[2-(phenylamino)acetyl]-2,3-dihydro-1H-isoindol-5-yl}-5,6,7,8-tetrahydroindolizine-1-carboxamide], the results for the IC50 (at Bcl-2 protein; in assay [1]) were 5.1 nM and 43 nM, respectively.

As for `CN(C(=O)c1cc(-c2cc3c(cc2C(=O)N2Cc4ccccc4C[C@H]2CN2CCOCC2)CN(C(=O)COc2ccccc2)C3)n2ccccc12)c1ccc(O)cc1` [Example 166, N-(4-Hydroxyphenyl)-N-methyl-3-{6-[(3S)-3-(morpholin-4-ylmethyl)-1,2,3,4-tetrahydroisoquinoline-2-carbonyl]-2-(2-phenoxyacetyl)-2,3-dihydro-1H-isoindol-5-yl}indolizine-1-carboxamide], the IC50 is 6.4 nM at Bcl-2 protein and 58 nM in assay [1].

Consider `C[C@@H]1Cc2ccccc2CN1C(=O)c1cc2c(cc1-c1cc(C(=O)N(C)c3ccc(O)cc3)c3ccccn13)CN(C(=O)COc1ccccc1)C2` [Example 167, N-(4-Hydroxyphenyl)-N-methyl-3-{6-[(3R)-3-methyl-1,2,3,4-tetrahydroisoquinoline-2-carbonyl]-2-(2-phenoxyacetyl)-2,3-dihydro-1H-isoindol-5-yl}indolizine-1-carboxamide], for which the IC50 was 6.5 nM on Bcl-2 protein and 20 nM in assay [1].

For the compound `C[C@@H]1Cc2ccccc2CN1C(=O)c1cc2c(cc1-c1cc(C(=O)N(C)c3ccc(O)cc3)c3n1CCCC3)CN(C(=O)N(C)C(C)(C)C)C2` [Example 81, N-tert-Butyl-5-{1-[(4-hydroxyphenyl)(methyl)carbamoyl]-5,6,7,8-tetrahydroindolizin-3-yl}-N-methyl-6-[(3R)-3-methyl-1,2,3,4-tetrahydroisoquinoline-2-carbonyl]-2,3-dihydro-1H-isoindole-2-carboxamide], the IC50 at Bcl-2 protein is 21 nM; in assay [1], > 150 nM.

Regarding `Cc1c(C(=O)N(C)c2ccc(O)cc2)cc(-c2cc3c(cc2C(=O)N2Cc4ccccc4C[C@H]2C)CN(C(=O)Oc2cccc(CCC(=O)N(C)C)c2)CC3)n1C` [Example 776, 3-[2-(Dimethylcarbamoyl)ethyl]phenyl 6-{4-[(4-hydroxyphenyl)(methyl)carbamoyl]-1,5-dimethyl-1H-pyrrol-2-yl}-7-[(3R)-3-methyl-1,2,3,4-tetrahydroisoquinoline-2-carbonyl]-1,2,3,4-tetrahydroisoquinoline-2-carboxylate], the values for the IC50 (at Bcl-2 protein; in assay [1]) were 2.2 nM and 1.1 nM, respectively.

On to `Cc1c(C(=O)N(C)c2ccccc2)cc(-c2cc3c(cc2C(=O)N2Cc4ccccc4C[C@H]2C)CN(C(=O)Oc2cnc4[nH]ccc4c2)CC3)n1C` [Example 636, 1H-Pyrrolo[2,3-b]pyridin-5-yl 6-{1,5-dimethyl-4-[methyl(phenyl)carbamoyl]-1H-pyrrol-2-yl}-7-[(3R)-3-methyl-1,2,3,4-tetrahydroisoquinoline-2-carbonyl]-1,2,3,4-tetrahydroisoquinoline-2-carboxylate], for which the IC50 at Bcl-2 protein was found to be 11 nM; in assay [1] it was 34 nM.

Take `C[C@@H]1Cc2ccccc2CN1C(=O)c1cc2c(cc1-c1cc(C(=O)N(C)c3ccc(O)cc3)c3n1CCCC3)CCN(C(=O)N(C)c1ccccc1)C2` [Example 74, 6-{1-[(4-Hydroxyphenyl)(methyl)carbamoyl]-5,6,7,8-tetrahydroindolizin-3-yl}-N-methyl-7-[(3R)-3-methyl-1,2,3,4-tetrahydroisoquinoline-2-carbonyl]-N-phenyl-1,2,3,4-tetrahydroisoquinoline-2-carboxamide]: the IC50 on Bcl-2 protein turned out to be 6.1 nM; in assay [1] it was 94 nM.

Consider `Cc1c(C(=O)N(C)c2ccc(O)cc2)cc(-c2cc3c(cc2C(=O)N2Cc4ccccc4C[C@H]2CN2CCOCC2)CN(C(=O)OC2CCCCC2)CC3)n1C` [Example 791, Cyclohexyl 6-{4-[(4-hydroxyphenyl)(methyl)carbamoyl]-1,5-dimethyl-1H-pyrrol-2-yl}-7-[(3S)-3-(morpholin-4-ylmethyl)-1,2,3,4-tetrahydroisoquinoline-2-carbonyl]-1,2,3,4-tetrahydroisoquinoline-2-carboxylate], for which the IC50 was determined as 2.8 nM on Bcl-2 protein and 54 nM in assay [1].

Consider `C[C@@H]1Cc2ccccc2CN1C(=O)c1cc2c(cc1-c1cc(C(=O)N(C)c3ccc(O)cc3)c3n1CCCC3)CCNC2` [Example 27, N-(4-Hydroxyphenyl)-N-methyl-3-{7-[(3R)-3-methyl-1,2,3,4-tetrahydroisoquinoline-2-carbonyl]-1,2,3,4-tetrahydroisoquinolin-6-yl}-5,6,7,8-tetrahydroindolizine-1-carboxamide; trifluoroacetic acid salt], for which the IC50 on Bcl-2 protein worked out at 83 nM.

Regarding `Cc1c(C(=O)N(C)c2ccc(O)cc2)cc(-c2cc3c(cc2C(=O)N2Cc4ccccc4C[C@H]2C)CN(C(=O)CN2CCCCC2)C3)n1C` [Example 176, 5-{2-[2-(1-Piperidyl)acetyl]-6-[(3R)-3-methyl-1,2,3,4-tetrahydroisoquinoline-2-carbonyl]-2,3-dihydro-1H-isoindol-5-yl}-N-(4-hydroxyphenyl)-N,1,2-trimethyl-1H-pyrrole-3-carboxamide], the 50% inhibitory concentration (IC50) on Bcl-2 protein amounted to 78 nM.

As for `C[C@@H]1Cc2ccccc2CN1C(=O)c1cc2c(cc1-c1cc(C(=O)N(C)c3ccc(O)cc3)c3n1CCCC3)CNC2` [Example 10, N-(4-Hydroxyphenyl)-N-methyl-3-{6-[(3R)-3-methyl-1,2,3,4-tetrahydroisoquinoline-2-carbonyl]-2,3-dihydro-1H-isoindol-5-yl}-5,6,7,8-tetrahydroindolizine-1-carboxamide], the IC50 at Bcl-2 protein stood at 127 nM.

`Cc1c(C(=O)N(C)c2ccc(O)cc2)cc(-c2cc3c(cc2C(=O)N2Cc4ccccc4C[C@H]2C)CN(C(=O)Oc2ccc(OCCN(C)C)cc2)CC3)n1C` [Example 476, 4-[2-(Dimethylamino)ethoxy]phenyl 6-{4-[(4-hydroxyphenyl)(methyl)carbamoyl]-1,5-dimethyl-1H-pyrrol-2-yl}-7-[(3R)-3-methyl-1,2,3,4-tetrahydroisoquinoline-2-carbonyl]-1,2,3,4-tetrahydroisoquinoline-2-carboxylate]: the IC50 at Bcl-2 protein amounted to 1.8 nM.
